Results as given in patent US20260085077A1, “HETEROCYCLIC DERIVATIVES AS JANUS KINASE INHIBITORS” (CHIESI FARMACEUTICI S.P.A., priority 2022, published 2026).

The molecules below were run on IL-13 induced pSTAT6 in BEAS-2B human cell line (assay: Inhibition of IL-13 induced pSTAT6 in BEAS). Conditions: IL-13 induced pSTAT6, BEAS-2B cells, ELISA.
Type: cell-based
Experimental: BEAS-2B human cell line was seeded (100.000 cells/well) and incubated for 48 h at 37° C., 5% CO2, 95% humidity. Compounds were added and incubated 30 min followed by IL-13 as trigger. After 30 min incubation, cells were lysed and pSTAT6 determined by Fastscan phospho-stat6 (Tyr641) sandwich ELISA kit (cell signaling). Inhibitors were tested at 11 consecutive […] dilutions starting from 10 μM (10 μM-40 pM) in duplicate. Calculation of IC50 data, curves and QC analysis were made using Excel tools and GraphPadPrism software. QC criteria parameters: Z′≥0.35, Hill Slope range 0.5 to 5, S:B>2.

`COc1cc2c(cc1-n1nc(C)c3cnc(-c4cnn5cccnc45)cc31)OCCN2` [Example 40, 6-methoxy-7-(3-methyl-6-(pyrazolo[1,5-a]pyrimidin-3-yl)-1H-pyrazolo[4,3-c]pyridin-1-yl)-3,4-dihydro-2H-benzo[b][1,4]oxazine] and `CNc1nn(-c2cc3c(cc2OC)NCCO3)c2cc(-c3cnn4cccnc34)ncc12` [Example 55, 1-(6-methoxy-3,4-dihydro-2H-benzo[b][1,4]oxazin-7-yl)-N-methyl-6-(pyrazolo[1,5-a]pyrimidin-3-yl)-1H-pyrazolo[4,3-c]pyridin-3-amine] fall in the same range of IC50: 5.01 to 50.1 nM for the first, 5.01 to 50.1 nM for the second.

Compared with `COc1cc2c(cc1-n1nc(C)c3cnc(-c4cnn5cccnc45)cc31)CCN2` [Example 41, 1-(6-methoxyindolin-5-yl)-3-methyl-6-(pyrazolo[1,5-a]pyrimidin-3-yl)-1H-pyrazolo[4,3-c]pyridine], `COc1cc2c(cc1-n1nc(C)c3cnc(-c4cnn5cccnc45)cc31)CCCN2` [Example 42, 7-methoxy-6-(3-methyl-6-(pyrazolo[1,5-a]pyrimidin-3-yl)-1H-pyrazolo[4,3-c]pyridin-1-yl)-1,2,3,4-tetrahydroquinoline] is lower in IC50: 5.01 to 50.1 nM for the first, less than 5.01 nM for the second.

`COc1cc2c(cc1-n1nc(C(=O)NCCCN(C)C)c3cnc(-c4cnn5cccnc45)cc31)OCCN2` [Example 43, N-(3-(dimethylamino)propyl)-1-(6-methoxy-3,4-dihydro-2H-benzo[b][1,4]oxazin-7-yl)-6-(pyrazolo[1,5-a]pyrimidin-3-yl)-1H-pyrazolo[4,3-c]pyridine-3-carboxamide] and `COc1cc2c(cc1-n1nc(NC(=O)OCCCN(C)C)c3cnc(-c4cnn5cccnc45)cc31)OCCN2` [Example 60, 3-(dimethylamino)propyl (1-(6-methoxy-3,4-dihydro-2H-benzo[b][1,4]oxazin-7-yl)-6-(pyrazolo[1,5-a]pyrimidin-3-yl)-1H-pyrazolo[4,3-c]pyridin-3-yl)carbamate] fall in the same range of IC50: 5.01 to 50.1 nM for the first, 5.01 to 50.1 nM for the second.

`COc1cc2c(cc1-n1nc(C(=O)NC3CN(C)C3)c3cnc(-c4cnn5cccnc45)cc31)OCCN2` [Example 44, 1-(6-methoxy-3,4-dihydro-2H-benzo[b][1,4]oxazin-7-yl)-N-(1-methylazetidin-3-yl)-6-(pyrazolo[1,5-a]pyrimidin-3-yl)-1H-pyrazolo[4,3-c]pyridine-3-carboxamide] and `COc1cc2c(cc1-n1nc(C(=O)NC[C@@H]3CN(C)CCO3)c3cnc(-c4cnn5cccnc45)cc31)OCCN2` [Example 45, (R)-1-(6-methoxy-3,4-dihydro-2H-benzo[b][1,4]oxazin-7-yl)-N-((4-methylmorpholin-2-yl)methyl)-6-(pyrazolo[1,5-a]pyrimidin-3-yl)-1H-pyrazolo[4,3-c]pyridine-3-carboxamide] fall in the same range of IC50: 5.01 to 50.1 nM for the first, 5.01 to 50.1 nM for the second.

First: COc1cc2c(cc1-n1nc(C(=O)NCCN3CCC(OC)CC3)c3cnc(-c4cnn5cccnc45)cc31)OCCN2 [Example 46, 1-(6-methoxy-3,4-dihydro-2H-benzo[b][1,4]oxazin-7-yl)-N-(2-(4-methoxypiperidin-1-yl)ethyl)-6-(pyrazolo[1,5-a]pyrimidin-3-yl)-1H-pyrazolo[4,3-c]pyridine-3-carboxamide]
Second: COCC1CCN(CCNC(=O)c2nn(-c3cc4c(cc3OC)NCCO4)c3cc(-c4cnn5cccnc45)ncc23)CC1 [Example 47, 1-(6-methoxy-3,4-dihydro-2H-benzo[b][1,4]oxazin-7-yl)-N-(2-(4-(methoxymethyl)piperidin-1-yl)ethyl)-6-(pyrazolo[1,5-a]pyrimidin-3-yl)-1H-pyrazolo[4,3-c]pyridine-3-carboxamide]
The IC50 of the first is lower: less than 5.01 nM for the first, 5.01 to 50.1 nM for the second. The first is the more potent here.

First: COc1cc2c(cc1-n1nc(C(=O)NCCN3CC4(CCOCC4)C3)c3cnc(-c4cnn5cccnc45)cc31)OCCN2 [Example 48, N-(2-(7-oxa-2-azaspiro[3.5]nonan-2-yl)ethyl)-1-(6-methoxy-3,4-dihydro-2H-benzo[b][1,4]oxazin-7-yl)-6-(pyrazolo[1,5-a]pyrimidin-3-yl)-1H-pyrazolo[4,3-c]pyridine-3-carboxamide]
Second: COc1cc2c(cc1-n1nc(C(=O)NCCN3CCCC4(COC4)C3)c3cnc(-c4cnn5cccnc45)cc31)OCCN2 [Example 49, N-(2-(2-oxa-6-azaspiro[3.5]nonan-6-yl)ethyl)-1-(6-methoxy-3,4-dihydro-2H-benzo[b][1,4]oxazin-7-yl)-6-(pyrazolo[1,5-a]pyrimidin-3-yl)-1H-pyrazolo[4,3-c]pyridine-3-carboxamide]
The IC50 of the first is lower: less than 5.01 nM for the first, 5.01 to 50.1 nM for the second.

First: COc1cc2c(cc1-n1nc(C(=O)NCCN3C[C@H]4COC(=O)[C@H]4C3)c3cnc(-c4cnn5cccnc45)cc31)OCCN2 [Example 50, 1-(6-methoxy-3,4-dihydro-2H-benzo[b][1,4]oxazin-7-yl)-N-(2-((3aS,6aR)-1-oxotetrahydro-1H-furo[3,4-c]pyrrol-5(3H)-yl)ethyl)-6-(pyrazolo[1,5-a]pyrimidin-3-yl)-1H-pyrazolo[4,3-c]pyridine-3-carboxamide]
Second: COc1cc2c(cc1-n1nc(C(=O)NCCN3CCC4(CC3)COC(=O)C4)c3cnc(-c4cnn5cccnc45)cc31)OCCN2 [Example 51, 1-(6-methoxy-3,4-dihydro-2H-benzo[b][1,4]oxazin-7-yl)-N-(2-(3-oxo-2-oxa-8-azaspiro[4.5]decan-8-yl)ethyl)-6-(pyrazolo[1,5-a]pyrimidin-3-yl)-1H-pyrazolo[4,3-c]pyridine-3-carboxamide]
The IC50 of the first is higher: 5.01 to 50.1 nM for the first, less than 5.01 nM for the second. The second is the more potent here.

First: COc1cc2c(cc1-n1nc(C(=O)NCCN3CCC4(CCOC4=O)CC3)c3cnc(-c4cnn5cccnc45)cc31)OCCN2 [Example 52, 1-(6-methoxy-3,4-dihydro-2H-benzo[b][1,4]oxazin-7-yl)-N-(2-(1-oxo-2-oxa-8-azaspiro[4.5]decan-8-yl)ethyl)-6-(pyrazolo[1,5-a]pyrimidin-3-yl)-1H-pyrazolo[4,3-c]pyridine-3-carboxamide]
Second: COc1cc2c(cc1-n1nc(C(=O)NCCN3CCC(C(=O)N(C)C)CC3)c3cnc(-c4cnn5cccnc45)cc31)OCCN2 [Example 53, N-(2-(4-(dimethylcarbamoyl)piperidin-1-yl)ethyl)-1-(6-methoxy-3,4-dihydro-2H-benzo[b][1,4]oxazin-7-yl)-6-(pyrazolo[1,5-a]pyrimidin-3-yl)-1H-pyrazolo[4,3-c]pyridine-3-carboxamide]
The IC50 of the first is lower: less than 5.01 nM for the first, 5.01 to 50.1 nM for the second. The first is the more potent here.

`COc1cc2c(cc1-n1nc(NCCN(C)C)c3cnc(-c4cnn5cccnc45)cc31)OCCN2` [Example 54, N1-(1-(6-methoxy-3,4-dihydro-2H-benzo[b][1,4]oxazin-7-yl)-6-(pyrazolo[1,5-a]pyrimidin-3-yl)-1H-pyrazolo[4,3-c]pyridin-3-yl)-N2,N2-dimethylethane-1,2-diamine] and `COc1cc2c(cc1-n1nc(NC(=O)OCCN(C)C)c3cnc(-c4cnn5cccnc45)cc31)OCCN2` [Example 57, 2-(dimethylamino)ethyl (1-(6-methoxy-3,4-dihydro-2H-benzo[b][1,4]oxazin-7-yl)-6-(pyrazolo[1,5-a]pyrimidin-3-yl)-1H-pyrazolo[4,3-c]pyridin-3-yl)carbamate] fall in the same range of IC50: 5.01 to 50.1 nM for the first, 5.01 to 50.1 nM for the second.

`COC(=O)Nc1nn(-c2cc3c(cc2OC)NCCO3)c2cc(-c3cnn4cccnc34)ncc12` [Example 56, methyl (1-(6-methoxy-3,4-dihydro-2H-benzo[b][1,4]oxazin-7-yl)-6-(pyrazolo[1,5-a]pyrimidin-3-yl)-1H-pyrazolo[4,3-c]pyridin-3-yl)carbamate] and `COc1cc2c(cc1-n1nc(NC(=O)OCCN3CCN(C)CC3)c3cnc(-c4cnn5cccnc45)cc31)OCCN2` [Example 63, 2-(4-methylpiperazin-1-yl)ethyl (1-(6-methoxy-3,4-dihydro-2H-benzo[b][1,4]oxazin-7-yl)-6-(pyrazolo[1,5-a]pyrimidin-3-yl)-1H-pyrazolo[4,3-c]pyridin-3-yl)carbamate] fall in the same range of IC50: 5.01 to 50.1 nM for the first, 5.01 to 50.1 nM for the second.

`COc1cc2c(cc1-n1nc(NC(=O)OCCN3CCOCC3)c3cnc(-c4cnn5cccnc45)cc31)OCCN2` [Example 58, 2-morpholinoethyl (1-(6-methoxy-3,4-dihydro-2H-benzo[b][1,4]oxazin-7-yl)-6-(pyrazolo[1,5-a]pyrimidin-3-yl)-1H-pyrazolo[4,3-c]pyridin-3-yl)carbamate] and `COc1cc2c(cc1-n1nc(NC(=O)OCCCN3CCOCC3)c3cnc(-c4cnn5cccnc45)cc31)OCCN2` [Example 61, 3-morpholinopropyl (1-(6-methoxy-3,4-dihydro-2H-benzo[b][1,4]oxazin-7-yl)-6-(pyrazolo[1,5-a]pyrimidin-3-yl)-1H-pyrazolo[4,3-c]pyridin-3-yl)carbamate] fall in the same range of IC50: 5.01 to 50.1 nM for the first, 5.01 to 50.1 nM for the second.

`COc1cc2c(cc1-n1nc(NC(=O)OCCCN3CCN(C)CC3)c3cnc(-c4cnn5cccnc45)cc31)OCCN2` [Example 59, 3-(4-methylpiperazin-1-yl)propyl (1-(6-methoxy-3,4-dihydro-2H-benzo[b][1,4]oxazin-7-yl)-6-(pyrazolo[1,5-a]pyrimidin-3-yl)-1H-pyrazolo[4,3-c]pyridin-3-yl)carbamate] and `COc1cc2c(cc1-n1nc(NC(=O)OCCN3CCSCC3)c3cnc(-c4cnn5cccnc45)cc31)OCCN2` [Example 64, 2-thiomorpholinoethyl (1-(6-methoxy-3,4-dihydro-2H-benzo[b][1,4]oxazin-7-yl)-6-(pyrazolo[1,5-a]pyrimidin-3-yl)-1H-pyrazolo[4,3-c]pyridin-3-yl)carbamate] fall in the same range of IC50: 5.01 to 50.1 nM for the first, 5.01 to 50.1 nM for the second.

Work on `COc1cc2c(cc1-n1nc(NC(=O)OCCN3CCS(=O)(=O)CC3)c3cnc(-c4cnn5cccnc45)cc31)OCCN2` [Example 62, 2-(1,1-dioxidothiomorpholino)ethyl (1-(6-methoxy-3,4-dihydro-2H-benzo[b][1,4]oxazin-7-yl)-6-(pyrazolo[1,5-a]pyrimidin-3-yl)-1H-pyrazolo[4,3-c]pyridin-3-yl)carbamate] yielded an IC50 of 5.01 to 50.1 nM.
